This note sets out measurements from patent US20220112187A1, “PYRAZOLOPYRIDINE AMINE COMPOUNDS FOR THE TREATMENT OF AUTOIMMUNE DISEASE” (Hoffmann-La Roche Inc., priority 2018, published 2022).

This assay has as its target T1, human TLR7 (Homo sapiens, UniProt Q9NYK1).
T1 sequence (Q9NYK1 27-1049): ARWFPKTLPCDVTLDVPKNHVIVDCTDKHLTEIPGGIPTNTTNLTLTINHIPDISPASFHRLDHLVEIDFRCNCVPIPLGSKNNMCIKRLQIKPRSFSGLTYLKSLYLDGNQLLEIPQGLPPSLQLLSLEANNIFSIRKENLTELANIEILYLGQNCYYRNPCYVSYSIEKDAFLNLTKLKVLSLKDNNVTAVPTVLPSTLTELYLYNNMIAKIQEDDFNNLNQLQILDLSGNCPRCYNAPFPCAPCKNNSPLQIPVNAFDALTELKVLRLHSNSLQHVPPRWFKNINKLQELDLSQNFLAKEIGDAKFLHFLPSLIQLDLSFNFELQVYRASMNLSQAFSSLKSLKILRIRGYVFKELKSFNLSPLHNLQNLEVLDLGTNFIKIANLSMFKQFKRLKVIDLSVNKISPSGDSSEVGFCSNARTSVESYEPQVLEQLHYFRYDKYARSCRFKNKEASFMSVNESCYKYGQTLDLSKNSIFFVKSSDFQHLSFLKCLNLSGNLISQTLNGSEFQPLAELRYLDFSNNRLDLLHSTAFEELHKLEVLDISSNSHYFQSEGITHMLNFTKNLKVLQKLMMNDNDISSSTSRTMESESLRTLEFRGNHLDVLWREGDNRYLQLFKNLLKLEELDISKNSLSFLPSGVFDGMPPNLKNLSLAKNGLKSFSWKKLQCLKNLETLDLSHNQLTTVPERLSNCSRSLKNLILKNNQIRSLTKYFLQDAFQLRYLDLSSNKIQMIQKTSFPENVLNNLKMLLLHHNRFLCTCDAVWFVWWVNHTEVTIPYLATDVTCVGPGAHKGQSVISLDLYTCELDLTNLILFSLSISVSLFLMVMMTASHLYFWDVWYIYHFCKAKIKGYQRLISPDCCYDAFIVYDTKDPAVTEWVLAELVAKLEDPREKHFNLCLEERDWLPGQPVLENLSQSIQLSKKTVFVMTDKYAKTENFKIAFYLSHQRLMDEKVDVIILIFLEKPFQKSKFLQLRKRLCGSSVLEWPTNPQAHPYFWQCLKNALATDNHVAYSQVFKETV
The assay is described as follows: HEK293-Blue-hTLR-7 cells assay (SEAP reporter, R848 stimulation). Format: cell-based. Conditions: HEK293-Blue-hTLR7 cells, R848 ligand, 20 hrs incubation. The text has this:
A stable HEK293-Blue-hTLR-7 cell line was purchased from InvivoGen (Cat. #: hkb-htlr7, San Diego, Calif., USA). These cells were originally designed for studying the stimulation of human TLR7 by monitoring the activation of NF-κB. A SEAP (secreted embryonic alkaline phosphatase) reporter gene was placed under the control of the IFN-β minimal promoter fused to five NF-κB and AP-1-binding sites. The SEAP was induced by activating NF-κB and AP-1 via stimulating HEK-Blue hTLR7 cells with TLR7 ligands. Therefore the reporter expression was declined by TLR7 antagonist under the stimulation of a ligand, such as R848 (Resiquimod), for incubation of 20 hrs. The cell culture supernatant SEAP reporter activity was determined using QUANTI-Blue™ kit (Cat. #: rep-qb1, Invivogen, San Diego, Ca, USA) at a wavelength of 640 nm, a detection medium that turns purple or blue in the presence of alkaline phosphatase.
HEK293-Blue-hTLR7 cells were incubated at a density of 250,000˜450,000 cells/mL in a volume of 170 μL in a 96-well plate in Dulbecco's Modified Eagle's medium (DMEM) containing 4.5 g/L glucose, 50 U/mL penicillin, […], […], 2 mM L-glutamine, 10% (v/v) heat-inactivated fetal bovine serum with addition of 20 μL test compound in a serial dilution in the presence of final DMSO at 1% and 10 μL of 20 uM R848 in above DMEM, perform incubation under 37° C. in a CO2 incubator for 20 hrs. Then 20 μL of the supernatant from each well was incubated with 180 μL Quanti-blue substrate solution at 37° C. for 2 hrs and the absorbance was read at 620˜655 nm using a spectrophotometer. The signalling pathway that TLR7 activation leads to downstream NF-κB activation has been widely accepted, and therefore similar reporter assay was modified for evaluating TLR7 antagonist.
By IC50 is commonly meant the midpoint of a concentration-inhibition curve. Take `C[C@@H]1CN(c2ccc(C#N)n3nccc23)C[C@H](CN2CCC(C)(N)CC2)O1` [Example 29, 4-[(2S,6R)-2-[(4-amino-4-methyl-1-piperidyl)methyl]-6-methyl-morpholin-4-yl]pyrazolo[1,5-a]pyridine-7-carbonitrile]: 76 nM corresponded to half-maximal inhibition (IC50). As for `C[C@@H]1CN(c2ccc(C#N)n3nccc23)C[C@H](CN2C[C@H]3CC[C@@H](N(C)C)[C@H]3C2)O1` (racemic) [Example 75, 4-[(2S,6R)-2-[[4-(dimethylamino)-3,3a,4,5,6,6a-hexahydro-1H-cyclopenta[c]pyrrol-2-yl]methyl]-6-methyl-morpholin-4-yl]pyrazolo[1,5-a]pyridine-7-carbonitrile], the figure is 680 nM; as for `C[C@@H]1CN(c2ccc(C#N)n3nccc23)C[C@H](CN2CCNCC2)O1` [Example 5, 4-[(2R,6S)-2-methyl-6-(piperazin-1-ylmethyl)morpholin-4-yl]pyrazolo[1,5-a]pyridine-7-carbonitrile], 54 nM; as for `C[C@@H]1CN(c2ccc(C#N)n3nccc23)C[C@H](CN2CCC3NCC3C2)O1` (stereo partly drawn) [Example 70, 4-[(2S,6R)-2-(3,7-diazabicyclo[4.2.0]octan-3-ylmethyl)-6-methyl-morpholin-4-yl]pyrazolo[1,5-a]pyridine-7-carbonitrile], 230 nM. As for `C[C@@H]1CN(c2ccc(C#N)n3nccc23)C[C@H](CN2C3CCC2CC(N)C3)O1` (stereo partly drawn) [Example 37, 4-[(2S,6R)-2-[(3-amino-8-azabicyclo[3.2.1]octan-8-yl)methyl]-6-methyl-morpholin-4-yl]pyrazolo[1,5-a]pyridine-7-carbonitrile], the figure is 190 nM; as for `C[C@@H]1CN(c2ccc(C#N)n3nccc23)C[C@H](CN2CCC(N3CCNCC3)CC2)O1` [Example 39, 4-[(2R,6S)-2-methyl-6-[(4-piperazin-1-yl-1-piperidyl)methyl]morpholin-4-yl]pyrazolo[1,5-a]pyridine-7-carbonitrile], 200 nM.

`C[C@@H]1CN(c2ccc(C#N)n3nccc23)C[C@H](CN2CCC(CN)CC2)O1` [Example 12, 4-[(2S,6R)-2-[[4-(aminomethyl)-1-piperidyl]methyl]-6-methyl-morpholin-4-yl]pyrazolo[1,5-a]pyridine-7-carbonitrile] came in with an IC50 of 240 nM. As for `C[C@@H]1CN(c2ccc(C#N)n3nccc23)C[C@H](CN2CCC(N3CCCC3)CC2)O1` [Example 54, 4-[(2R,6S)-2-methyl-6-[(4-pyrrolidin-1-yl-1-piperidyl)methyl]morpholin-4-yl]pyrazolo[1,5-a]pyridine-7-carbonitrile], the figure is 190 nM; as for `C[C@@H]1CN(c2ccc(C#N)n3nccc23)C[C@H](CN2CC3(CC(N)C3)C2)O1` [Example 11, 4-[(2S,6R)-2-[(6-amino-2-azaspiro[3.3]heptan-2-yl)methyl]-6-methyl-morpholin-4-yl]pyrazolo[1,5-a]pyridine-7-carbonitrile], 160 nM.

`C[C@@H]1CN(c2ccc(C#N)n3nccc23)C[C@H](CN2CCC[C@@H]3NCCC32)O1` (stereo partly drawn) [Example 63, 4-[(2R,6S)-2-methyl-6-[[cis-(3aS,7aS)-1,2,3,3a,5,6,7,7a-octahydropyrrolo[3,2-b]pyridin-4-yl]methyl]morpholin-4-yl]pyrazolo[1,5-a]pyridine-7-carbonitrile]: the IC50 came out at 270 nM. With `C[C@@H]1CN(c2ccc(C#N)n3nccc23)C[C@H](CN2CCC(N3CCCCC3)CC2)O1` [Example 16, 4-[(2R,6S)-2-methyl-6-[[4-(1-piperidyl)-1-piperidyl]methyl]morpholin-4-yl]pyrazolo[1,5-a]pyridine-7-carbonitrile] the figure was 100 nM; with `C[C@@H]1CN(c2ccc(C#N)n3nccc23)C[C@H](CN2CCCC3(CNC3)C2)O1` [Example 33, 4-[(2S,6R)-2-(2,6-diazaspiro[3.5]nonan-6-ylmethyl)-6-methyl-morpholin-4-yl]pyrazolo[1,5-a]pyridine-7-carbonitrile], 460 nM. On to `C[C@@H]1CN(c2ccc(C#N)n3nccc23)C[C@H](CN2CCC3(CCCCN3)C2)O1` (stereo partly drawn) [Example 42, 4-[(2S,6R)-2-(2,6-diazaspiro[4.5]decan-2-ylmethyl)-6-methyl-morpholin-4-yl]pyrazolo[1,5-a]pyridine-7-carbonitrile], for which the half-maximal inhibitory concentration (IC50) was found to be 98 nM.

Take `C[C@@H]1CN(c2ccc(C#N)n3nccc23)C[C@H](CN2CCOC3(CCNCC3)C2)O1` [Example 71, 4-[(2R,6S)-2-methyl-6-(1-oxa-4,9-diazaspiro[5.5]undecan-4-ylmethyl)morpholin-4-yl]pyrazolo[1,5-a]pyridine-7-carbonitrile]: the IC50 was 450 nM.

For the compound `C[C@@H]1CN(c2ccc(C#N)n3nccc23)C[C@H](CN2CCC3(CC2)CNCCO3)O1` [Example 60, 4-[(2R,6S)-2-methyl-6-(1-oxa-4,9-diazaspiro[5.5]undecan-9-ylmethyl)morpholin-4-yl]pyrazolo[1,5-a]pyridine-7-carbonitrile], half-maximal inhibition (IC50) required 100 nM. `C[C@@H]1CN(c2ccc(C#N)n3nccc23)C[C@H](CN2CCC3(CCCNC3)CC2)O1` [Example 27, 4-[(2S,6R)-2-(2,9-diazaspiro[5.5]undecan-9-ylmethyl)-6-methyl-morpholin-4-yl]pyrazolo[1,5-a]pyridine-7-carbonitrile] yielded an IC50 of 130 nM.

As for `C[C@@H]1CN(c2ccc(C#N)n3nccc23)C[C@H](CN2CC3(CCCNCC3)C2)O1` [Example 46, 4-[(2S,6R)-2-(2,8-diazaspiro[3.6]decan-2-ylmethyl)-6-methyl-morpholin-4-yl]pyrazolo[1,5-a]pyridine-7-carbonitrile], the IC50 is 600 nM.

The compound `C[C@@H]1CN(c2ccc(C#N)n3ncc(F)c23)C[C@H](CN2CCC3(CCCNC3)C2)O1` (stereo partly drawn) [Example 69, 3-fluoro-4-[(2S,6R)-2-(2,9-diazaspiro[4.5]decan-2-ylmethyl)-6-methyl-morpholin-4-yl]pyrazolo[1,5-a]pyridine-7-carbonitrile] came in with an IC50 of 130 nM. In turn, `C[C@@H]1CN(c2ccc(C#N)n3nccc23)C[C@H](CN2CCC3(CCN3)CC2)O1` [Example 48, 4-[(2S,6R)-2-(1,7-diazaspiro[3.5]nonan-7-ylmethyl)-6-methyl-morpholin-4-yl]pyrazolo[1,5-a]pyridine-7-carbonitrile] yielded an IC50 of 300 nM.

For `C[C@@H]1CN(c2ccc(C#N)n3nccc23)C[C@H](CN2CCC3(CCCCN3)CC2)O1` [Example 47, 4-[(2S,6R)-2-(1,9-diazaspiro[5.5]undecan-9-ylmethyl)-6-methyl-morpholin-4-yl]pyrazolo[1,5-a]pyridine-7-carbonitrile], the IC50 turned out to be 180 nM. As for `C[C@@H]1CN(c2ccc(C#N)n3nccc23)C[C@H](CN2CC3CNCC3C2)O1` (stereo partly drawn) [Example 22, 4-[(2S,6R)-2-(2,3,3a,4,6,6a-hexahydro-1H-pyrrolo[3,4-c]pyrrol-5-ylmethyl)-6-methyl-morpholin-4-yl]pyrazolo[1,5-a]pyridine-7-carbonitrile], the figure is 100 nM; as for `C[C@@H]1CN(c2ccc(C#N)n3nccc23)C[C@H](CN2CCC3NCCC3C2)O1` (stereo partly drawn) [Example 41, 4-[(2S,6R)-2-(1,2,3,3a,4,6,7,7a-octahydropyrrolo[3,2-c]pyridin-5-ylmethyl)-6-methyl-morpholin-4-yl]pyrazolo[1,5-a]pyridine-7-carbonitrile], 78 nM.
